This is an account of results in US20140005163A1 (NOVARTIS AG, priority 2010, published 2014).

Bounds are passed on as bounds.

For orientation: IC50 means the midpoint of a concentration-inhibition curve.

The target in one assay is T1, PI3K alpha (Homo sapiens, UniProt P42336).
T1 construct: p85(iSH2) fusion partner (see partner chain) (N); His tag (C); made in house; host or cells: baculovirus; Tn5 (Trichoplusia ni) or TiniPro insect cells
Kind of assay: PI3K alpha kinase assay (Kinase-Glo luminescence). The format is biochemical. The method, boiled down: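 Read-out: Kinase-Glo luminescence of ATP left after 60 min at room temperature. Conditions: 10 nM PI3Kα (EMV B1075), 1 μM ATP, 10 μg/mL PI substrate, Tris pH 7.5 buffer with MgCl2, NaCl, CHAPS and DTT. IC50s fitted with a four-parameter logistic model.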
For orientation: In Kinase-Glo more light means more ATP remaining.

A further assay has as its target T2, PI3K delta (Homo sapiens, UniProt O00329).
T2 construct: for the full-length p110-d subunit are generated and fused by overlapping PCR; p85(iSH2) fusion partner (see partner chain) (N); His tag (C); made in house; host or cells: baculovirus; Tn5 (Trichoplusia ni) or TiniPro insect cells
In words: PI3K delta kinase assay (Kinase-Glo luminescence). The format is biochemical. The procedure, abridged: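 Kinase-Glo luminescence read-out of ATP remaining after 60 min at RT. Enzyme: 10 nM BV1060 (p85 iSH2–p110δ fusion, His-tagged); substrate 10 μg/mL PI, ATP 1 μM final; Tris pH 7.5 buffer with MgCl2, NaCl, CHAPS, DTT. IC50 from 4-parameter logistic fit over 8 concentrations.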

The test system of assay [1] is PKB Ser473 phosphorylation in Rat1-myr-HA-p110 delta cells. In words: Reverse protein array assay, PKB Ser473 phosphorylation in Rat1-myr-p110 delta cells. The settings on record: read-out: p-PKB IC50. The format is cell-based. The method, boiled down: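 Cells: Rat1-myr-HA-p110 alpha/beta/delta, seeded ≥20 h. Lysis on ice 10 min; reverse-phase protein array, 4 lysate dilutions; fluorescence read, relative intensity.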

T2 sequence (O00329 with tags, fused parts or gaps limits assumed): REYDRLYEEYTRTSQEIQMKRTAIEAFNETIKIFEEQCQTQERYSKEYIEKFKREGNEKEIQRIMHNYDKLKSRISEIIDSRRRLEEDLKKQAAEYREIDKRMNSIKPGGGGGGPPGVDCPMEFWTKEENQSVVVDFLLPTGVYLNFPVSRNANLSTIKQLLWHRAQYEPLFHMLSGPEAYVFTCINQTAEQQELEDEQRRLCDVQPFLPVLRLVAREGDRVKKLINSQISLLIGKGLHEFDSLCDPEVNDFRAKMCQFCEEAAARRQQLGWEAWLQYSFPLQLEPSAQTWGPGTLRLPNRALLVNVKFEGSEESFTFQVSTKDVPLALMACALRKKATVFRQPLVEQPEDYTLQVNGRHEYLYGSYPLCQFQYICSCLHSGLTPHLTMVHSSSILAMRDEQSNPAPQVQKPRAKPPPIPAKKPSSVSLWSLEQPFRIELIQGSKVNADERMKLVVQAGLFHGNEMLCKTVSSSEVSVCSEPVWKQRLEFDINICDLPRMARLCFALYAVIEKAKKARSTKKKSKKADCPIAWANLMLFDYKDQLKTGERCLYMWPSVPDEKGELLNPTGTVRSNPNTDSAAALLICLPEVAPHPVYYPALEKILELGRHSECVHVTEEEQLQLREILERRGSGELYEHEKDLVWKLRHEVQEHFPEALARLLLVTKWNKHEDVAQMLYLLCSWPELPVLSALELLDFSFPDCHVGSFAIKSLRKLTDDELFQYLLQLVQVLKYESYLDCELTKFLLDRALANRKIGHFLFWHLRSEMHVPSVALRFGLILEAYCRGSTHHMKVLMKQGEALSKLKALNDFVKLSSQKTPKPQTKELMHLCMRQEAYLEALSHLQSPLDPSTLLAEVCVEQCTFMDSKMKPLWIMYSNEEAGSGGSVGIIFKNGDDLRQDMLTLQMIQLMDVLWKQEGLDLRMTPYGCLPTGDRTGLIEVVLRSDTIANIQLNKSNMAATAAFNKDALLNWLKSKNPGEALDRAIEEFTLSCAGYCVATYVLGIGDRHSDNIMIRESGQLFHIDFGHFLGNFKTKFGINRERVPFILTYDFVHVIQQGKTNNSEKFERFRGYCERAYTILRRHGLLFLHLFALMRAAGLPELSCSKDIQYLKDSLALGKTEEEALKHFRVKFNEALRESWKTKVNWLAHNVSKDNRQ
T1 sequence (P42336 with tags, fused parts or gaps limits assumed): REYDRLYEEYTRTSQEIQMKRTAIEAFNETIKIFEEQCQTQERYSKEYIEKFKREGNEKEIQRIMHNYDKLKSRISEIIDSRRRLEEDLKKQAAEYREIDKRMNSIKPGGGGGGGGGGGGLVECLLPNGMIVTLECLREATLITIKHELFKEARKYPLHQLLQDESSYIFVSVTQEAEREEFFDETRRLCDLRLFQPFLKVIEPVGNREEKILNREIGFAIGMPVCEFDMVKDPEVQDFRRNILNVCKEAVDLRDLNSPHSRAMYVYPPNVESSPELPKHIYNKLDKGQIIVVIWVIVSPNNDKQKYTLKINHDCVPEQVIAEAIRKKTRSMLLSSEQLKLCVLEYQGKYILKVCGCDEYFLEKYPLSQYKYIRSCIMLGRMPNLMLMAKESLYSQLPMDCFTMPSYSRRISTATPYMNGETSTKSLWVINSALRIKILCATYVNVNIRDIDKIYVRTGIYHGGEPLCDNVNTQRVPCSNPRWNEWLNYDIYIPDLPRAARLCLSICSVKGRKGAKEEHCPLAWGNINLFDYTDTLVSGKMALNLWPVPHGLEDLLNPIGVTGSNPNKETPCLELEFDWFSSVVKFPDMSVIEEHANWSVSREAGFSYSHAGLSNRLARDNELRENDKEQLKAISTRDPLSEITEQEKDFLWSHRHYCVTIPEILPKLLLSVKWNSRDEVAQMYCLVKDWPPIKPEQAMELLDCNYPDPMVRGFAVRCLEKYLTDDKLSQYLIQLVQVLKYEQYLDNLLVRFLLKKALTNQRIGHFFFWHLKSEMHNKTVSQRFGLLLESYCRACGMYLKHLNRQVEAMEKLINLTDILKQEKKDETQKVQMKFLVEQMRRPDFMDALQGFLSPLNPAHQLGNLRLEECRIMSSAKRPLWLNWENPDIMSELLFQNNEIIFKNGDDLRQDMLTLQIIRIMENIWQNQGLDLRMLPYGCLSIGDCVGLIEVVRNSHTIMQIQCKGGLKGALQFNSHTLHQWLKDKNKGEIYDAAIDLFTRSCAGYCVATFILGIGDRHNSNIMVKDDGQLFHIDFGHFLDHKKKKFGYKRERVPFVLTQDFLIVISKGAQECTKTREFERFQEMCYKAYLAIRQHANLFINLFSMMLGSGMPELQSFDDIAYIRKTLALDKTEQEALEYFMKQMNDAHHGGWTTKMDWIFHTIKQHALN

For the molecule `CCN(CC)c1cncc(-c2ccc3ncc4c(c3c2)n(-c2cn(C)nc2C)c(=O)n4C)c1` [Example 95, 8-(5-Diethylamino-pyridin-3-yl)-1-(1,3-dimethyl-1H-pyrazol-4-yl)-3-methyl-1,3-dihydro-imidazo[4,5-c]quinolin-2-one], the concentration for half-maximal inhibition (IC50) at PI3K alpha came out at 36 nM; at PI3K delta, 24 nM; in assay [1], 25 nM.

With `Cc1nn(C)cc1-n1c(=O)n(C)c2cnc3ccc(-c4ccc(N5CCCC5)nc4)cc3c21` [Example 97, 1-(1,3-Dimethyl-1H-pyrazol-4-yl)-3-methyl-8-(6-pyrrolidin-1-yl-pyridin-3-yl)-1,3-dihydro-imidazo[4,5-c]quinolin-2-one], the 50% inhibitory concentration (IC50) on PI3K alpha was determined as 85 nM; on PI3K delta, 236 nM; in assay [1], 30 nM.

For the molecule `CNc1ncc(-c2ccc3ncc4c(c3c2)n(-c2cn(C)nc2Cl)c(=O)n4C)cc1C` [Example 119, 1-(3-Chloro-1-methyl-1H-pyrazol-4-yl)-3-methyl-8-(5-methyl-6-methylamino-pyridin-3-yl)-1,3-dihydro-imidazo[4,5-c]quinolin-2-one], the IC50 stood at 16 nM at PI3K alpha, 9 nM at PI3K delta and 7 nM in assay [1].

Consider `Cc1nn(C)cc1-n1c(=S)n(C)c2cnc3ccc(-c4cccnc4)cc3c21` [Example 128.1, 1-(1,3-Dimethyl-1H-pyrazol-4-yl)-3-methyl-8-pyridin-3-yl-1,3-dihydro-imidazo[4,5-c]quinoline-2-thione], for which the IC50 came out at 11 nM at PI3K alpha, 22 nM at PI3K delta and 127 nM in assay [1].

With `COc1ccc(-c2ccc3ncc4c(c3c2)n(-c2cn(C)nc2C)c(=S)n4C)cc1OC` [Example 128.2, 8-(3,4-Dimethoxy-phenyl)-1-(1,3-dimethyl-1H-pyrazol-4-yl)-3-methyl-1,3-dihydro-imidazo[4,5-c]quinoline-2-thione], the values for the IC50 (on PI3K alpha; at PI3K delta; in assay [1]) were 11 nM, 11 nM and 10 nM, respectively.

Turning to `CNc1ncc(-c2ccc3ncc4c(c3c2)n(-c2cn(C(C)C)nc2C)c(=O)n4C)cc1C(F)(F)F` [Example 144.2, 1-(1-Isopropyl-3-methyl-1H-pyrazol-4-yl)-3-methyl-8-(6-methylamino-5-trifluoromethyl-pyridin-3-yl)-1,3-dihydro-imidazo[4,5-c]quinolin-2-one], the figures for the concentration for half-maximal inhibition (IC50) (at PI3K alpha; on PI3K delta; in assay [1]) were 8 nM, 4 nM and 12 nM, respectively.

Consider `CCNc1ncc(-c2ccc3ncc4c(c3c2)n(-c2cn(C)nc2C)c(=O)n4C)cc1C(F)(F)F` [Example 145.2, 1-(1,3-Dimethyl-1H-pyrazol-4-yl)-8-(6-ethylamino-5-trifluoromethyl-pyridin-3-yl)-3-methyl-1,3-dihydro-imidazo[4,5-c]quinolin-2-one], for which the figures for the IC50 (at PI3K alpha; at PI3K delta; in assay [1]) were 27 nM, 9 nM and 42 nM, respectively.

With `CCn1cc(-n2c(=O)n(C)c3cnc4ccc(-c5cnc(N)c(Cl)c5)cc4c32)c(C)n1` [Example 148.3, 8-(6-Amino-5-chloro-pyridin-3-yl)-1-(1-ethyl-3-methyl-1H-pyrazol-4-yl)-3-methyl-1,3-dihydro-imidazo[4,5-c]quinolin-2-one], the 50% inhibitory concentration (IC50) was determined as 7 nM at PI3K alpha, 13 nM at PI3K delta and 14 nM in assay [1].

On to `Cc1cc(-n2c(=O)n(C)c3cnc4ccc(-c5cnc(F)c(N)c5)cc4c32)n(C)n1` [Example 149.3, 8-(5-Amino-6-fluoro-pyridin-3-yl)-1-(2,5-dimethyl-2H-pyrazol-3-yl)-3-methyl-1,3-dihydro-imidazo[4,5-c]quinolin-2-one], for which the IC50 worked out at 63 nM on PI3K alpha, 38 nM at PI3K delta and 168 nM in assay [1].

As for `Cc1nn(C(C)C)cc1-n1c(=O)n(C)c2cnc3ccc(-c4cnc(Cl)c(N)c4)cc3c21` [Example 152.1, 8-(5-Amino-6-chloro-pyridin-3-yl)-1-(1-isopropyl-3-methyl-1H-pyrazol-4-yl)-3-methyl-1,3-dihydro-imidazo[4,5-c]quinolin-2-one], the figures for the IC50 (on PI3K alpha; on PI3K delta; in assay [1]) were 27 nM, 8 nM and 16 nM, respectively.

As to `Cc1nn(C)c(C)c1-n1c(=O)n(C)c2cnc3ccc(-c4cnc(Cl)c(N)c4)cc3c21` [Example 152.3, 8-(5-Amino-6-chloro-pyridin-3-yl)-3-methyl-1-(1,3,5-trimethyl-1H-pyrazol-4-yl)-1,3-dihydro-imidazo[4,5-c]quinolin-2-one], the concentration for half-maximal inhibition (IC50) on PI3K alpha was 44 nM; on PI3K delta, 7 nM; in assay [1], 78 nM.

For `CCOCc1cc(-c2ccc3ncc4c(c3c2)n(-c2cn(C(C)C)nc2C)c(=O)n4C)cnc1N` [Example 166.3, 8-(6-Amino-5-ethoxymethyl-pyridin-3-yl)-1-(1-isopropyl-3-methyl-1H-pyrazol-4-yl)-3-methyl-1,3-dihydro-imidazo[4,5-c]quinolin-2-one], the IC50 is 10 nM on PI3K alpha, 6 nM at PI3K delta and 111 nM in assay [1].

Take `CCOCc1cc(-c2ccc3ncc4c(c3c2)n(-c2cn(C)nc2Cl)c(=O)n4C)cnc1N` [Example 166.4, 8-(6-Amino-5-ethoxymethyl-pyridin-3-yl)-1-(3-chloro-1-methyl-1H-pyrazol-4-yl)-3-methyl-1,3-dihydro-imidazo[4,5-c]quinolin-2-one]: the IC50 was 9 nM at PI3K alpha, under 3 nM at PI3K delta and 11 nM in assay [1].

Regarding `Cc1nn(C(C)C)cc1-n1c(=O)n(C)c2cnc3ccc(-c4cnc5c(c4)COC(=O)N5C)cc3c21` [Example 170, 1-(1-Isopropyl-3-methyl-1H-pyrazol-4-yl)-3-methyl-8-(1-methyl-2-oxo-1,4-dihydro-2H-pyrido[2,3-d][1,3]oxazin-6-yl)-1,3-dihydro-imidazo[4,5-c]quinolin-2-one], the half-inhibitory concentration (IC50) at PI3K alpha came to 55 nM; on PI3K delta, 23 nM; in assay [1], 607 nM.

As to `Cc1nn(C)cc1-n1c(=O)n(C)c2cnc3ccc(-c4cncc(N(C)C5CCC5)c4)cc3c21` [Example 174, 8-[5-(Cyclobutyl-methyl-amino)-pyridin-3-yl]-1-(1,3-dimethyl-1H-pyrazol-4-yl)-3-methyl-1,3-dihydro-imidazo[4,5-c]quinolin-2-one], the IC50 was 17 nM on PI3K alpha, 23 nM at PI3K delta and 12 nM in assay [1].

Consider `Cc1cc(-n2c(=O)n(C)c3cnc4ccc(-c5cnc(C)c(O)c5)cc4c32)n(C)n1` [Example 185.2, 1-(2,5-Dimethyl-2H-pyrazol-3-yl)-8-(5-hydroxy-6-methyl-pyridin-3-yl)-3-methyl-1,3-dihydro-imidazo[4,5-c]quinolin-2-one], for which the 50% inhibitory concentration (IC50) was found to be 11 nM at PI3K alpha, 6 nM on PI3K delta and 158 nM in assay [1].

With `[2H]C([2H])([2H])OCc1ncc(-c2ccc3ncc4c(c3c2)n(-c2cn(C)nc2C)c(=O)n4C)cc1OCC` [Example 198, 1-(1,3-Dimethyl-1H-pyrazol-4-yl)-8-(5-ethoxy-6-trideuteromethoxymethyl-pyridin-3-yl)-3-methyl-1,3-dihydro-imidazo[4,5-c]quinolin-2-one], the concentration for half-maximal inhibition (IC50) was 17 nM on PI3K alpha, 7 nM at PI3K delta and 89 nM in assay [1].

With `CCn1cc(-n2c(=O)n(C)c3cnc4ccc(-c5cncc(C(C)(C)C#N)c5)cc4c32)c(C)n1` [Example 220.2, 2-{5-[1-(1-Ethyl-3-methyl-1H-pyrazol-4-yl)-3-methyl-2-oxo-2,3-dihydro-1H-imidazo[4,5-c]quinolin-8-yl]-pyridin-3-yl}-2-methyl-propionitrile], the figures for the IC50 (at PI3K alpha; at PI3K delta; in assay [1]) were 10 nM, 7 nM and 45 nM, respectively.

Regarding `CCNC(=O)c1cc(-c2ccc3ncc4c(c3c2)n(-c2cn(C(C)C)nc2C)c(=O)n4C)cnc1N` [Example 227, 2-Amino-N-ethyl-5-[1-(1-isopropyl-3-methyl-1H-pyrazol-4-yl)-3-methyl-2-oxo-2,3-dihydro-1H-imidazo[4,5-c]quinolin-8-yl]-nicotinamide], the IC50 at PI3K alpha came out at 71 nM; at PI3K delta it was 26 nM; in assay [1] it was 240 nM.

For the molecule `COc1ncc(-c2ccc3ncc4c(c3c2)n(-c2cc(C)nn2C)c(=O)n4C)c(OC)n1` [Example 234.4, 8-(2,4-Dimethoxy-pyrimidin-5-yl)-1-(2,5-dimethyl-2H-pyrazol-3-yl)-3-methyl-1,3-dihydro-imidazo[4,5-c]quinolin-2-one], the concentration for half-maximal inhibition (IC50) is 64 nM on PI3K alpha, 19 nM at PI3K delta and 119 nM in assay [1].

Consider `CNc1ccc(-c2ccc3ncc4c(c3c2)n(-c2cn(C(C)C)nc2C)c(=S)n4C)cn1` [Example 241, 1-(1-isopropyl-3-methyl-1H-pyrazol-4-yl)-3-methyl-8-(6-(methylamino)pyridin-3-yl)-1H-imidazo[4,5-c]quinoline-2(3H)-thione], for which the half-inhibitory concentration (IC50) on PI3K alpha worked out at 18 nM; at PI3K delta, 147 nM; in assay [1], 9 nM.
